Measured values taken from PubChem BioAssay (NCI).
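Step 1: Grow cells in 96-well plates. Step 2: Expose to compound for 48 hours at 5 concentrations. Step 3: Interpolate endpoints linearly; if unreached, use highest concentration. TGI is the concentration that stops growth completely.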

Experiments:
Experiment in all cases: NCI-60 cell line screen, 48 h
HCT-116 colon = tested on: HCT-116 colon
786-0 renal = tested on: 786-0 renal
UACC-62 melanoma = tested on: UACC-62 melanoma
HS 578T breast = tested on: HS 578T breast
T-47D breast = tested on: T-47D breast
OVCAR-8 ovarian = tested on: OVCAR-8 ovarian
NCI-H226 lung = tested on: NCI-H226 lung
NCI/ADR-RES ovarian = tested on: NCI/ADR-RES ovarian
OVCAR-5 ovarian = tested on: OVCAR-5 ovarian
A498 renal = tested on: A498 renal
SK-MEL-5 melanoma = tested on: SK-MEL-5 melanoma
CCRF-CEM leukemia = tested on: CCRF-CEM leukemia
M14 melanoma = tested on: M14 melanoma
EKVX NSCLC = tested on: EKVX NSCLC
SF-539 CNS = tested on: SF-539 CNS
MDA-N = tested on: MDA-N
SK-OV-3 ovarian = tested on: SK-OV-3 ovarian
SNB-19 CNS = tested on: SNB-19 CNS
NCI-H522 lung = tested on: NCI-H522 lung
HT29 colon = tested on: HT29 colon
HCC-2998 colon = tested on: HCC-2998 colon
SF-268 CNS = tested on: SF-268 CNS
SF-295 CNS = tested on: SF-295 CNS
COLO 205 colon = tested on: COLO 205 colon
OVCAR-3 ovarian = tested on: OVCAR-3 ovarian
MALME-3M melanoma = tested on: MALME-3M melanoma
PC-3 prostate = tested on: PC-3 prostate
U251 CNS = tested on: U251 CNS
OVCAR-4 ovarian = tested on: OVCAR-4 ovarian
HCT-15 colon = tested on: HCT-15 colon
NCI-H23 lung = tested on: NCI-H23 lung
DU-145 prostate = tested on: DU-145 prostate
SN12C renal = tested on: SN12C renal
SNB-75 CNS = tested on: SNB-75 CNS
IGROV1 ovarian = tested on: IGROV1 ovarian
MDA-MB-435 = tested on: MDA-MB-435
UO-31 renal = tested on: UO-31 renal
SK-MEL-28 melanoma = tested on: SK-MEL-28 melanoma
MCF7 breast = tested on: MCF7 breast
HOP-92 NSCLC = tested on: HOP-92 NSCLC
BT-549 breast = tested on: BT-549 breast
MOLT-4 leukemia = tested on: MOLT-4 leukemia
K-562 leukemia = tested on: K-562 leukemia
MDA-MB-231 breast = tested on: MDA-MB-231 breast
KM12 colon = tested on: KM12 colon
UACC-257 melanoma = tested on: UACC-257 melanoma
RPMI-8226 leukemia = tested on: RPMI-8226 leukemia
NCI-H460 lung = tested on: NCI-H460 lung
HOP-62 NSCLC = tested on: HOP-62 NSCLC
SW-620 colon = tested on: SW-620 colon
CAKI-1 renal = tested on: CAKI-1 renal
A549 NSCLC = tested on: A549 NSCLC
SK-MEL-2 melanoma = tested on: SK-MEL-2 melanoma
TK-10 renal = tested on: TK-10 renal
LOX IMVI melanoma = tested on: LOX IMVI melanoma
RXF 393 renal = tested on: RXF 393 renal
ACHN renal = tested on: ACHN renal
HL-60(TB) leukemia = tested on: HL-60(TB) leukemia

CCOC(=O)[C@H]1O[C@@H]1C(=O)NC(CC(C)C)C(=O)NCCC(C)C (some centres undefined)
TGI (HCT-116 colon): > 100 µM
TGI (786-0 renal): > 100 µM
TGI (UACC-62 melanoma): > 100 µM
TGI (HS 578T breast): > 100 µM
TGI (T-47D breast): > 100 µM
TGI (OVCAR-8 ovarian): > 100 µM
TGI (NCI-H226 lung): > 100 µM
TGI (NCI/ADR-RES ovarian): > 100 µM
TGI (OVCAR-5 ovarian): > 100 µM
TGI (A498 renal): > 100 µM
TGI (SK-MEL-5 melanoma): > 100 µM
TGI (CCRF-CEM leukemia): > 100 µM
TGI (M14 melanoma): > 100 µM
TGI (EKVX NSCLC): > 100 µM
TGI (SF-539 CNS): > 100 µM
TGI (MDA-N): > 100 µM
TGI (SK-OV-3 ovarian): > 100 µM
TGI (SNB-19 CNS): > 100 µM
TGI (NCI-H522 lung): > 100 µM
TGI (HT29 colon): > 100 µM
TGI (HCC-2998 colon): > 100 µM
TGI (SF-268 CNS): > 100 µM
TGI (SF-295 CNS): > 100 µM
TGI (COLO 205 colon): > 100 µM
TGI (OVCAR-3 ovarian): > 100 µM
TGI (MALME-3M melanoma): > 100 µM
TGI (PC-3 prostate): > 100 µM
TGI (U251 CNS): > 100 µM
TGI (OVCAR-4 ovarian): > 100 µM
TGI (HCT-15 colon): > 100 µM
TGI (NCI-H23 lung): > 100 µM
TGI (DU-145 prostate): > 100 µM
TGI (SN12C renal): > 100 µM
TGI (SNB-75 CNS): > 100 µM
TGI (IGROV1 ovarian): > 100 µM
TGI (MDA-MB-435): > 100 µM
TGI (UO-31 renal): > 100 µM
TGI (SK-MEL-28 melanoma): > 100 µM
TGI (MCF7 breast): > 100 µM
TGI (HOP-92 NSCLC): > 100 µM
TGI (BT-549 breast): > 100 µM
TGI (MOLT-4 leukemia): > 100 µM
TGI (K-562 leukemia): > 100 µM
TGI (MDA-MB-231 breast): > 100 µM
TGI (KM12 colon): > 100 µM
TGI (UACC-257 melanoma): > 100 µM
TGI (RPMI-8226 leukemia): > 100 µM
TGI (NCI-H460 lung): > 100 µM
TGI (HOP-62 NSCLC): > 100 µM
TGI (SW-620 colon): > 100 µM
TGI (CAKI-1 renal): > 100 µM
TGI (A549 NSCLC): > 100 µM

O=C1C=CC(=O)C(CNc2ccc(C(=O)OC34CC5CC(CC(C5)C3)C4)cc2)=C1Br
TGI (HCT-116 colon): 27.1 µM
TGI (786-0 renal): 28.3 µM
TGI (UACC-62 melanoma): 21.6 µM
TGI (HS 578T breast): 27.2 µM
TGI (T-47D breast): 18.5 µM
TGI (SK-MEL-2 melanoma): 38.2 µM
TGI (OVCAR-8 ovarian): 23.9 µM
TGI (NCI-H226 lung): 32.4 µM
TGI (NCI/ADR-RES ovarian): 18.4 µM
TGI (OVCAR-5 ovarian): 38 µM
TGI (A498 renal): 33.1 µM
TGI (SK-MEL-5 melanoma): 22 µM
TGI (CCRF-CEM leukemia): 7.41 µM
TGI (M14 melanoma): 60 µM
TGI (EKVX NSCLC): 20.5 µM
TGI (SF-539 CNS): 5.6 µM
TGI (MDA-N): 33 µM
TGI (TK-10 renal): 28.6 µM
TGI (SK-OV-3 ovarian): 34.2 µM
TGI (SNB-19 CNS): 35.4 µM
TGI (NCI-H522 lung): 1.44 µM
TGI (HT29 colon): 16.8 µM
TGI (HCC-2998 colon): 28.3 µM
TGI (SF-268 CNS): 27.4 µM
TGI (SF-295 CNS): 33.5 µM
TGI (COLO 205 colon): 24.1 µM
TGI (LOX IMVI melanoma): 23.4 µM
TGI (OVCAR-3 ovarian): 39.4 µM
TGI (MALME-3M melanoma): 15.5 µM
TGI (PC-3 prostate): 19 µM
TGI (U251 CNS): 38.2 µM
TGI (OVCAR-4 ovarian): 22.6 µM
TGI (HCT-15 colon): 21.4 µM
TGI (NCI-H23 lung): 23.9 µM
TGI (DU-145 prostate): 94.8 µM
TGI (SN12C renal): 34.1 µM
TGI (SNB-75 CNS): 19.7 µM
TGI (RXF 393 renal): 17.5 µM
TGI (IGROV1 ovarian): 15.6 µM
TGI (MDA-MB-435): 65.5 µM
TGI (UO-31 renal): 21.2 µM
TGI (MCF7 breast): 48.1 µM
TGI (HOP-92 NSCLC): 12.3 µM
TGI (BT-549 breast): 20.5 µM
TGI (MOLT-4 leukemia): 25.5 µM
TGI (K-562 leukemia): 32.7 µM
TGI (MDA-MB-231 breast): 24.3 µM
TGI (KM12 colon): 19.7 µM
TGI (UACC-257 melanoma): 29.1 µM
TGI (RPMI-8226 leukemia): 33.4 µM
TGI (NCI-H460 lung): 29.4 µM
TGI (ACHN renal): 28.4 µM
TGI (HOP-62 NSCLC): 62.2 µM
TGI (SW-620 colon): 68.1 µM
TGI (CAKI-1 renal): 12.5 µM
TGI (A549 NSCLC): 49.3 µM

NS(=O)(=O)c1ccc(NC(=S)/N=C/c2c(O)c3ccccc3oc2=O)cc1
TGI (HCT-116 colon): > 100 µM
TGI (786-0 renal): > 100 µM
TGI (UACC-62 melanoma): > 100 µM
TGI (HS 578T breast): 99.6 µM
TGI (T-47D breast): > 100 µM
TGI (SK-MEL-2 melanoma): > 100 µM
TGI (OVCAR-8 ovarian): > 100 µM
TGI (NCI-H226 lung): 61 µM
TGI (NCI/ADR-RES ovarian): > 100 µM
TGI (OVCAR-5 ovarian): > 100 µM
TGI (A498 renal): 64.1 µM
TGI (SK-MEL-5 melanoma): 96.1 µM
TGI (CCRF-CEM leukemia): > 100 µM
TGI (M14 melanoma): > 100 µM
TGI (EKVX NSCLC): > 100 µM
TGI (SF-539 CNS): > 100 µM
TGI (MDA-N): > 100 µM
TGI (TK-10 renal): > 100 µM
TGI (SK-OV-3 ovarian): > 100 µM
TGI (SNB-19 CNS): 85.5 µM
TGI (NCI-H522 lung): 88.6 µM
TGI (HT29 colon): > 100 µM
TGI (HCC-2998 colon): > 100 µM
TGI (SF-268 CNS): > 100 µM
TGI (SF-295 CNS): > 100 µM
TGI (COLO 205 colon): > 100 µM
TGI (LOX IMVI melanoma): > 100 µM
TGI (OVCAR-3 ovarian): > 100 µM
TGI (PC-3 prostate): > 100 µM
TGI (U251 CNS): > 100 µM
TGI (OVCAR-4 ovarian): > 100 µM
TGI (HCT-15 colon): > 100 µM
TGI (HL-60(TB) leukemia): > 100 µM
TGI (NCI-H23 lung): > 100 µM
TGI (DU-145 prostate): > 100 µM
TGI (SN12C renal): > 100 µM
TGI (SNB-75 CNS): 53.3 µM
TGI (RXF 393 renal): 80.9 µM
TGI (IGROV1 ovarian): 97.1 µM
TGI (MDA-MB-435): > 100 µM
TGI (UO-31 renal): 87.6 µM
TGI (MCF7 breast): > 100 µM
TGI (HOP-92 NSCLC): 68.1 µM
TGI (BT-549 breast): > 100 µM
TGI (MOLT-4 leukemia): > 100 µM
TGI (K-562 leukemia): > 100 µM
TGI (MDA-MB-231 breast): 65 µM
TGI (KM12 colon): > 100 µM
TGI (UACC-257 melanoma): > 100 µM
TGI (RPMI-8226 leukemia): > 100 µM
TGI (NCI-H460 lung): > 100 µM
TGI (ACHN renal): > 100 µM
TGI (HOP-62 NSCLC): > 100 µM
TGI (SW-620 colon): > 100 µM
TGI (CAKI-1 renal): 62.4 µM
TGI (A549 NSCLC): > 100 µM
